The text below walks through data of patent US7919671B2, “Method for testing a compound for a therapeutic effect and a diagnostic method” (Chempath Oy, priority 2004, dated 2011).

One assay addresses T1, human PAP (Homo sapiens, UniProt P15309).
T1 sequence (P15309 33-386): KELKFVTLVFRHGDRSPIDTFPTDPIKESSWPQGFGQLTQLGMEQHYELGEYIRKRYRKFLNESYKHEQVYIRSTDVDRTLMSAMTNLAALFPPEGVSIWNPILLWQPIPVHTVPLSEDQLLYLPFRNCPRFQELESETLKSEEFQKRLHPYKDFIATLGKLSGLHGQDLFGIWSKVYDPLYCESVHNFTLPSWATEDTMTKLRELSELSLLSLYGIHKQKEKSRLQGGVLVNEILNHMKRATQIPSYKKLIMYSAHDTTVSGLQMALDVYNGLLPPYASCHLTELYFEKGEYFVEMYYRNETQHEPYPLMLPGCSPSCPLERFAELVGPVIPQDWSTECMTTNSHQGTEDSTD
The assay can be described thus: protein overlay assay of PAP binding to immobilized phospholipids (PIP Strips). As to conditions: 100 pmole lipid per spot on nitrocellulose strip; 10 μg/ml or 50 μg/ml human PAP, overnight at +4° C. How it is done: (D) The phospholipid binding properties of PAP. Nitrocellulose-immobilized phospholipids at 100 pmole per spot. The lipids, indicated by dashed circles, are: 1. lysophosphatidic acid, 2. lysophosphocholine, 3. PI; 4. PI(3)P; 5. PI(4)P; 6. PI(5)P; 7. phosphatidyletanolamine; 8. phosphatidylcholine; 9. spingosine-1-phosphate; 10. PI(3,4)P2; 11. PI(3,5)P2; 12. PI(4,5)P2; 13. PI(3,4,5)P3; 14. phosphatidic acid; 15. phosphatidylserine; 16. blank. The strip was incubated with human PAP at concentration 10 μg/ml.
The interaction between PAP and PI lipids was investigated using protein overlay assay.
The binding of human PAP to phospholipids was screened using PIP Strips™ (Echelon Bioscience). 100 pmole of lysophosphatidic acid, lysophosphocholine, PI, PI(3)P, PI(4)P, PI(5)P, phosphatidyletanolamine, phosphatidylcholine, sphingosine-1-phosphate, PI(3,4)P2, PI(3,5)P2, PI(4,5)P2, PI(3,4,5)P3, phosphatidic acid, and phosphatidylserine was immobilized on a nitrocellulose strip. The strip was incubated with 10 μg/ml or 50 μg/ml human PAP in 4% non-fat dry milk (Valio) in TBS-T overnight at +4° C. The bound PAP was detected using polyclonal PAP antibody produced by us (Vihko et al., 1978, Clin. Chem. 24, 1915-1919), alkalinephosphatase conjugated secondary antibody (Sigma), and the NBT/BCIP color reaction assay (Promega).
In the case of phosphatidylserine, the “binding of PAP to the lipid” value is recorded as “no affinity”.
Regarding PI(3,4,5)P3, the “binding of PAP to the lipid” value is reported as “no affinity”.
Regarding “phosphatidylinositol 4-phosphate [PI(4)P]”, the “binding of PAP to the lipid” value was “no affinity”.
With lysophosphocholine, the “binding of PAP to the lipid” value was “no affinity”.
Still for that read-out and setting: the value for phosphatidic acid was “no affinity”; that for PI(5)P was “no affinity”.
Same read-out and setting: the entry for PI(4,5)P2 is “no affinity”; for PI(3,4)P2 it is “no affinity”; for phosphatidylcholine it is “no affinity”.
In the case of Phosphatidylinositol [PI], the “binding of PAP to the lipid” value is given as “no affinity”.
With lysophosphatidic acid, the “binding of PAP to the lipid” value is “no affinity”.
Still for that read-out and setting: the value for `CCCCCCCCCCCCCCCC(=O)OC[C@H](COP(=O)(O)O[C@@H]1[C@H](O)[C@H](OP(=O)(O)O)[C@@H](O)[C@H](O)[C@H]1O)OC(=O)CCCCCCCCCCCCCCC` [PI(3)P, phosphatidylinositol 3-phosphate] was “binds strongly”; that for PI(3,5)P2 was “no affinity”; that for phosphatidylethanolamine was “no affinity”.
As for `CCCCCCCCCCCCC/C=C/[C@@H](O)[C@@H](N)COP(=O)(O)O` [sphingosine-1-phosphate], the “binding of PAP to the lipid” value is listed as “no affinity”.

In another assay the target is T2, PAP purified from human spermatic fluid (Homo sapiens, UniProt P15309).
T2 construct: purified from human spermatic fluid as previously described; from tissue; host or cells: human spermatic (seminal) fluid
T2 sequence (P15309 33-386): T1 sequence (P15309 33-386)
Kind of assay: malachite green assay of the PI(3)P phosphatase activity of PAP. The assay is classed as biochemical. As to conditions: 50 mM MES buffer, pH 6.5; 0.25 μg PAP per reaction; 37° C., 2 and 5 min. The method, then: (E) PI(3)P phosphatase activity of PAP. Phosphatase assays containing 0.01 μg/μl PAP with varying amounts of PI(3)P or buffer were incubated for 5 min at 37° C. and free phosphate was measured by malachite green assay. Initial velocities were calculated from these time courses and plotted against the respective substrate concentration.
To confirm that PAP hydrolyses PI(3)P the lipid phosphatase activity of PAP towards PI(3)P was studied. […] Being sigmoidal, the kinetic curve was inconsistent with Michaelis-Menten kinetics.
A malachite green assay (BIOMOL GREEN™, BIOMOL Research Laboratories, Inc.) adapted to a 96-well format was used to measure the released free-phosphate from PI(3)P (Echelon Bioscience Inc.). Briefly, the reaction (total volume of 25 μl) containing 50 mM MES buffer, pH 6.5 and an indicated amount of PI(3)P, was initiated by adding the PAP (0.25 μg per reaction) purified from human spermatic fluid as previously described (specific activity of the enzyme 397 μmol min^−1 mg^−1) (Vihko et al. 1978, Clin. Chem. 24, 1915-1919). After incubation at 37° C. for 2 and 5 min the reaction was terminated by adding 100 μl of BIOMOL GREEN reagent. The green color was allowed to develop for 20 min at room temperature and absorbance was measured at 650 nm. The phosphate released was quantified by comparing to inorganic phosphate standards. […]
For `CCCCCCCCCCCCCCCC(=O)OC[C@H](COP(=O)(O)O[C@@H]1[C@H](O)[C@H](OP(=O)(O)O)[C@@H](O)[C@H](O)[C@H]1O)OC(=O)CCCCCCCCCCCCCCC` [PI(3)P, phosphatidylinositol 3-phosphate], the “lipid phosphatase activity of PAP towards the lipid (use as a substrate)” value was “utilizes PI(3)P as a substrate”.

Staying with this assay, now noted: 50 mM MES buffer, pH 6.5; 37° C.; inconsistent with Michaelis-Menten kinetics.
With `CCCCCCCCCCCCCCCC(=O)OC[C@H](COP(=O)(O)O[C@@H]1[C@H](O)[C@H](OP(=O)(O)O)[C@@H](O)[C@H](O)[C@H]1O)OC(=O)CCCCCCCCCCCCCCC` [PI(3)P, phosphatidylinositol 3-phosphate], the “shape of the kinetic curve (initial velocity against substrate concentration)” value is given as “sigmoidal”.
